This note sets out measurements from patent US8324250B2 (Hoffmann-La Roche Inc., priority 2009, dated 2012).

Structures are written as SMILES.

This assay has as its target T1, recombinant human NK3 receptor (Homo sapiens, UniProt P29371).
T1 construct: expressed in transfected cells; host or cells: HEK293 cells (transient expression), membranes
T1 sequence (P29371 1-465): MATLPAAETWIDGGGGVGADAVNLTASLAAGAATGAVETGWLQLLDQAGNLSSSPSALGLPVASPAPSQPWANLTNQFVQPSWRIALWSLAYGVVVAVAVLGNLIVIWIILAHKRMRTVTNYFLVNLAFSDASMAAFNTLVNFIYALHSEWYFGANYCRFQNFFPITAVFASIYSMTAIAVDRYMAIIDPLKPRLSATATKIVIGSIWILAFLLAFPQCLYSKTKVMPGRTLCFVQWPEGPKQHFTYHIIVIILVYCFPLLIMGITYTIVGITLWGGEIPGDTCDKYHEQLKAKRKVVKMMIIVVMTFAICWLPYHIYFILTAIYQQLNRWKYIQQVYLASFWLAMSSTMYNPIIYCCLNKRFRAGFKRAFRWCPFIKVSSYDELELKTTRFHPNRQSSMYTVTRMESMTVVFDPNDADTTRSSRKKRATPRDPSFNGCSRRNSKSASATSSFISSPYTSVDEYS
Briefly: [3H]SR142801 competition binding assay. The note with it: membranes from HEK293 cells transiently expressing recombinant human NK3 receptor; [3H]SR142801 radioligand; 75 min at RT; Ki by Cheng-Prussoff; read-out: Data Ki (hNK-3 receptor affinity). In short, it runs like this:
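Membranes from HEK293 cells transiently expressing the receptor, 5 μg protein/well, in 50 mM Tris-HCl pH 7.4 with 4 mM MnCl2, 1 μM phosphoramidon, 0.1% BSA; nonspecific binding defined with 10 μM SB222200. Filtration and scintillation counting; IC50 from Hill fit, Ki by Cheng-Prussoff using saturation-derived KD, duplicates.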
For orientation: Ki means a dissociation constant, usually derived from enzyme kinetics or from competition with a known ligand. Consider `Cc1nnc(C)n1C1CCN(C(=O)N2CCC(C(=O)N[C@@H](C)c3ccccc3)(c3ccccc3)CC2)CC1` [Example 220, 1-[4-(3,5-Dimethyl-[1,2,4]triazol-4-yl)-piperidine-1-carbonyl]-4-phenyl-piperidine-4-carboxylic acid ((S)-1-phenyl-ethyl)-amide], for which the Ki is 63.9 nM. Turning to `C[C@H](NC(=O)C1(c2ccccc2)CCN(C(=O)N2CCC(N3CCSCC3)CC2)CC1)c1ccccc1` [Example 218, 4-Phenyl-1-(4-thiomorpholin-4-yl-piperidine-1-carbonyl)-piperidine-4-carboxylic acid ((S)-1-phenyl-ethyl)-amide], the Ki is 5.2 nM. Under `C[C@H](NC(=O)C1(c2ccccc2)CCN(C(=O)c2ccc(N3CCCCC3)nc2)CC1)c1ccccc1` [Example 12, 4-Phenyl-1-(3,4,5,6-tetrahydro-2H-[l,2′]bipyridinyl-5′-carbonyl)-piperidine-4-carboxylic acid ((S)-1-phenyl-ethyl)-amide] stands 50.4 nM; under `CC(C)C(NC(=O)C1(c2ccc(F)cc2)CCN(C(=O)C2CCN(c3ccc(C#N)cn3)CC2)CC1)c1ccc(F)cc1` (centres unmarked) [Example 153, 1-(5′-Cyano-3,4,5,6-tetrahydro-2H-[1,2′]bipyridinyl-4-carbonyl)-4-(4-fluoro-phenyl)-piperidine-4-carboxylic acid [1-(4-fluoro-phenyl)-2-methyl-propyl]-amide], 38 nM; under `C[C@H](NC(=O)C1(c2ccc(F)cc2)CCN(C(=O)c2ccc(N3CCCCC3=O)cc2)CC1)c1cccc(F)c1` [Example 173, 4-(4-Fluoro-phenyl)-1-[4-(2-oxo-piperidin-1-yl)-benzoyl]-piperidine-4-carboxylic acid [(S)-1-(3-fluoro-phenyl)-ethyl]-amide], 43 nM. The same measure for `C[C@H](NC(=O)C1(c2ccccc2)CCN(C(=O)N2CCC(N3CCS(=O)(=O)CC3)CC2)CC1)c1ccc(F)cc1` [Example 223, 1-[4-(1,1-Dioxo-1λ6-thiomorpholin-4-yl)-piperidine-1-carbonyl]-4-phenyl-piperidine-4-carboxylic acid [(S)-1-(4-fluoro-phenyl)-ethyl]-amide]: 6 nM; for `CN(Cc1ccc(F)cc1)C(=O)C1(c2ccccc2)CCN(C(=O)c2ccc(N3CCS(=O)(=O)CC3)cc2)CC1` [Example 106, 1-[4-(1,1-Dioxo-1λ6-thiomor-pholin-4-yl)-benzoyl]-4-phenyl-piperidine-4-carboxylic acid (4-fluoro-benzyl)-methyl-amide]: 56.3 nM.

As for `C[C@H](NC(=O)C1(c2ccccc2)CCN(C(=O)c2cc(-c3ccc(F)cc3)no2)CC1)c1ccccc1` [Example 62, 1-[3-(4-Fluoro-phenyl)-isoxazole-5-carbonyl]-4-phenyl-piperidine-4-carboxylic acid ((S)-1-phenyl-ethyl)-amide], the Ki was determined as 63.5 nM.

With `Cc1noc(-c2ccc(C(=O)N3CCC(C(=O)NC(C)c4ccc(F)c(C(F)(F)F)c4)(c4ccc(F)cc4)CC3)cc2)n1` (centres unmarked) [Example 162, 4-(4-Fluoro-phenyl)-1-[4-(3-methyl-[1,2,4]oxadiazol-5-yl)-benzoyl]-piperidine-4-carboxylic acid [1-(4-fluoro-3-trifluoromethyl-phenyl)-ethyl]-amide], the inhibitory constant (Ki) came to 75 nM. Under `Cc1noc(-c2ccc(C(=O)N3CCC(C(=O)NC(C)(C)c4ccccc4)(c4ccccc4)CC3)cc2)n1` [Example 116, 1-[4-(3-Methyl-[1,2,4]oxadiazol-5-yl)-benzoyl]-4-phenyl-piperidine-4-carboxylic acid (1-methyl-1-phenyl-ethyl)-amide] stands 22.6 nM; under `C[C@H](NC(=O)C1(c2ccccc2)CCN(C(=O)N2CCN(c3ccc(S(C)(=O)=O)cc3F)CC2)CC1)c1ccccc1` [Example 211, 1-[4-(2-Fluoro-4-methanesulfonyl-phenyl)-piperazine-1-carbonyl]-4-phenyl-piperidine-4-carboxylic acid ((S)-1-phenyl-ethyl)-amide], 29.4 nM.
